{"source": "the NIST ThermoML archive (doi:10.1016/j.fluid.2012.11.006)", "note": "Numbers after ± are expanded uncertainties.", "data": [{"smiles": "O=C(O)c1cc(Br)ccc1Br", "note": "[2,5-dibromobenzoic acid]", "values": [{"measurement": "vapor or sublimation pressure", "setting": "373 K, Crystal, Torsion effusion method", "value": "0.001175 ± 0.00013", "unit": "kPa"}, {"measurement": "vapor or sublimation pressure", "setting": "373.5 K, Crystal, Torsion effusion method", "value": "0.001213 ± 0.00015", "unit": "kPa"}, {"measurement": "vapor or sublimation pressure", "setting": "373.7 K, Crystal, Torsion effusion method", "value": "0.00127 ± 0.00014", "unit": "kPa"}, {"measurement": "vapor or sublimation pressure", "setting": "375.4 K, Crystal, Torsion effusion method", "value": "0.001516 ± 0.00021", "unit": "kPa"}, {"measurement": "vapor or sublimation pressure", "setting": "376.8 K, Crystal, Torsion effusion method", "value": "0.001914 ± 0.00029", "unit": "kPa"}, {"measurement": "vapor or sublimation pressure", "setting": "376.9 K, Crystal, Torsion effusion method", "value": "0.001762 ± 0.00018", "unit": "kPa"}, {"measurement": "vapor or sublimation pressure", "setting": "440.2 K, Liquid, non-isothermal thermogravimetric", "value": "0.643 ± 0.11", "unit": "kPa"}, {"measurement": "vapor or sublimation pressure", "setting": "440.5 K, Liquid, non-isothermal thermogravimetric", "value": "0.663 ± 0.091", "unit": "kPa"}, {"measurement": "vapor or sublimation pressure", "setting": "441.3 K, Liquid, non-isothermal thermogravimetric", "value": "0.731 ± 0.094", "unit": "kPa"}, {"measurement": "vapor or sublimation pressure", "setting": "442.1 K, Liquid, non-isothermal thermogravimetric", "value": "0.732 ± 0.095", "unit": "kPa"}, {"measurement": "vapor or sublimation pressure", "setting": "443.1 K, Liquid, isothermal thermogravimetric", "value": "0.819 ± 0.06", "unit": "kPa"}, {"measurement": "vapor or sublimation pressure", "setting": "444 K, Liquid, isothermal thermogravimetric", "value": "0.821 ± 0.092", "unit": "kPa"}, {"measurement": "vapor or sublimation pressure", "setting": "444.1 K, Liquid, isothermal thermogravimetric", "value": "0.835 ± 0.09", "unit": "kPa"}, {"measurement": "vapor or sublimation pressure", "setting": "444.1 K, Liquid, non-isothermal thermogravimetric", "value": "0.844 ± 0.098", "unit": "kPa"}, {"measurement": "vapor or sublimation pressure", "setting": "444.6 K, Liquid, non-isothermal thermogravimetric", "value": "0.841 ± 0.092", "unit": "kPa"}, {"measurement": "vapor or sublimation pressure", "setting": "444.8 K, Liquid, isothermal thermogravimetric", "value": "0.822 ± 0.082", "unit": "kPa"}, {"measurement": "vapor or sublimation pressure", "setting": "445.4 K, Liquid, non-isothermal thermogravimetric", "value": "0.919 ± 0.092", "unit": "kPa"}, {"measurement": "vapor or sublimation pressure", "setting": "446.3 K, Liquid, non-isothermal thermogravimetric", "value": "0.924 ± 0.096", "unit": "kPa"}, {"measurement": "vapor or sublimation pressure", "setting": "447 K, Liquid, isothermal thermogravimetric", "value": "1.031 ± 0.087", "unit": "kPa"}, {"measurement": "vapor or sublimation pressure", "setting": "448.1 K, Liquid, isothermal thermogravimetric", "value": "1.01 ± 0.091", "unit": "kPa"}, {"measurement": "vapor or sublimation pressure", "setting": "448.3 K, Liquid, isothermal thermogravimetric", "value": "1.044 ± 0.089", "unit": "kPa"}, {"measurement": "vapor or sublimation pressure", "setting": "448.3 K, Liquid, non-isothermal thermogravimetric", "value": "1.04 ± 0.1", "unit": "kPa"}, {"measurement": "vapor or sublimation pressure", "setting": "448.7 K, Liquid, isothermal thermogravimetric", "value": "1.012 ± 0.089", "unit": "kPa"}, {"measurement": "vapor or sublimation pressure", "setting": "448.8 K, Liquid, non-isothermal thermogravimetric", "value": "1.066 ± 0.1", "unit": "kPa"}, {"measurement": "vapor or sublimation pressure", "setting": "449.2 K, Liquid, non-isothermal thermogravimetric", "value": "1.146 ± 0.1", "unit": "kPa"}, {"measurement": "vapor or sublimation pressure", "setting": "450.1 K, Liquid, non-isothermal thermogravimetric", "value": "1.151 ± 0.11", "unit": "kPa"}, {"measurement": "vapor or sublimation pressure", "setting": "451.2 K, Liquid, isothermal thermogravimetric", "value": "1.291 ± 0.11", "unit": "kPa"}, {"measurement": "vapor or sublimation pressure", "setting": "452 K, Liquid, non-isothermal thermogravimetric", "value": "1.302 ± 0.12", "unit": "kPa"}, {"measurement": "vapor or sublimation pressure", "setting": "452.1 K, Liquid, isothermal thermogravimetric", "value": "1.259 ± 0.11", "unit": "kPa"}, {"measurement": "vapor or sublimation pressure", "setting": "452.3 K, Liquid, isothermal thermogravimetric", "value": "1.306 ± 0.1", "unit": "kPa"}, {"measurement": "vapor or sublimation pressure", "setting": "452.9 K, Liquid, isothermal thermogravimetric", "value": "1.282 ± 0.1", "unit": "kPa"}, {"measurement": "vapor or sublimation pressure", "setting": "452.9 K, Liquid, non-isothermal thermogravimetric", "value": "1.335 ± 0.1", "unit": "kPa"}, {"measurement": "vapor or sublimation pressure", "setting": "453.1 K, Liquid, non-isothermal thermogravimetric", "value": "1.404 ± 0.099", "unit": "kPa"}, {"measurement": "vapor or sublimation pressure", "setting": "454.2 K, Liquid, non-isothermal thermogravimetric", "value": "1.429 ± 0.098", "unit": "kPa"}, {"measurement": "vapor or sublimation pressure", "setting": "455.1 K, Liquid, isothermal thermogravimetric", "value": "1.608 ± 0.11", "unit": "kPa"}, {"measurement": "vapor or sublimation pressure", "setting": "456.1 K, Liquid, isothermal thermogravimetric", "value": "1.617 ± 0.12", "unit": "kPa"}, {"measurement": "vapor or sublimation pressure", "setting": "456.2 K, Liquid, isothermal thermogravimetric", "value": "1.573 ± 0.11", "unit": "kPa"}, {"measurement": "vapor or sublimation pressure", "setting": "456.3 K, Liquid, non-isothermal thermogravimetric", "value": "1.578 ± 0.11", "unit": "kPa"}, {"measurement": "vapor or sublimation pressure", "setting": "456.7 K, Liquid, non-isothermal thermogravimetric", "value": "1.622 ± 0.11", "unit": "kPa"}, {"measurement": "vapor or sublimation pressure", "setting": "456.8 K, Liquid, isothermal thermogravimetric", "value": "1.602 ± 0.11", "unit": "kPa"}, {"measurement": "vapor or sublimation pressure", "setting": "457.1 K, Liquid, non-isothermal thermogravimetric", "value": "1.739 ± 0.12", "unit": "kPa"}, {"measurement": "vapor or sublimation pressure", "setting": "458.2 K, Liquid, non-isothermal thermogravimetric", "value": "1.752 ± 0.1", "unit": "kPa"}, {"measurement": "vapor or sublimation pressure", "setting": "459.3 K, Liquid, isothermal thermogravimetric", "value": "1.974 ± 0.1", "unit": "kPa"}, {"measurement": "vapor or sublimation pressure", "setting": "460 K, Liquid, isothermal thermogravimetric", "value": "1.91 ± 0.14", "unit": "kPa"}, {"measurement": "vapor or sublimation pressure", "setting": "460.1 K, Liquid, non-isothermal thermogravimetric", "value": "1.931 ± 0.14", "unit": "kPa"}, {"measurement": "vapor or sublimation pressure", "setting": "460.3 K, Liquid, isothermal thermogravimetric", "value": "1.994 ± 0.14", "unit": "kPa"}, {"measurement": "vapor or sublimation pressure", "setting": "460.6 K, Liquid, non-isothermal thermogravimetric", "value": "1.967 ± 0.12", "unit": "kPa"}, {"measurement": "vapor or sublimation pressure", "setting": "461 K, Liquid, isothermal thermogravimetric", "value": "1.945 ± 0.13", "unit": "kPa"}, {"measurement": "vapor or sublimation pressure", "setting": "461.2 K, Liquid, non-isothermal thermogravimetric", "value": "2.111 ± 0.14", "unit": "kPa"}, {"measurement": "vapor or sublimation pressure", "setting": "462.1 K, Liquid, non-isothermal thermogravimetric", "value": "2.123 ± 0.14", "unit": "kPa"}, {"measurement": "vapor or sublimation pressure", "setting": "463.1 K, Liquid, isothermal thermogravimetric", "value": "2.39 ± 0.14", "unit": "kPa"}, {"measurement": "vapor or sublimation pressure", "setting": "464.1 K, Liquid, isothermal thermogravimetric", "value": "2.401 ± 0.17", "unit": "kPa"}, {"measurement": "vapor or sublimation pressure", "setting": "464.2 K, Liquid, non-isothermal thermogravimetric", "value": "2.396 ± 0.17", "unit": "kPa"}, {"measurement": "vapor or sublimation pressure", "setting": "464.3 K, Liquid, isothermal thermogravimetric", "value": "2.319 ± 0.15", "unit": "kPa"}, {"measurement": "vapor or sublimation pressure", "setting": "464.8 K, Liquid, isothermal thermogravimetric", "value": "2.362 ± 0.14", "unit": "kPa"}, {"measurement": "vapor or sublimation pressure", "setting": "464.8 K, Liquid, non-isothermal thermogravimetric", "value": "2.456 ± 0.15", "unit": "kPa"}, {"measurement": "vapor or sublimation pressure", "setting": "465.4 K, Liquid, non-isothermal thermogravimetric", "value": "2.637 ± 0.14", "unit": "kPa"}, {"measurement": "vapor or sublimation pressure", "setting": "466.2 K, Liquid, non-isothermal thermogravimetric", "value": "2.643 ± 0.15", "unit": "kPa"}, {"measurement": "vapor or sublimation pressure", "setting": "467 K, Liquid, isothermal thermogravimetric", "value": "2.886 ± 0.19", "unit": "kPa"}, {"measurement": "vapor or sublimation pressure", "setting": "467.1 K, Liquid, isothermal thermogravimetric", "value": "2.776 ± 0.18", "unit": "kPa"}, {"measurement": "vapor or sublimation pressure", "setting": "468.1 K, Liquid, non-isothermal thermogravimetric", "value": "2.879 ± 0.15", "unit": "kPa"}, {"measurement": "vapor or sublimation pressure", "setting": "468.2 K, Liquid, isothermal thermogravimetric", "value": "2.931 ± 0.15", "unit": "kPa"}, {"measurement": "vapor or sublimation pressure", "setting": "468.5 K, Liquid, non-isothermal thermogravimetric", "value": "2.897 ± 0.14", "unit": "kPa"}, {"measurement": "vapor or sublimation pressure", "setting": "468.7 K, Liquid, isothermal thermogravimetric", "value": "2.855 ± 0.078", "unit": "kPa"}, {"measurement": "Normal melting temperature", "setting": "Crystal, DTA", "value": "155 ± 0.5", "unit": "°C"}]}]}
